Results as given in US20150105252A1, “SUBSTITUTED PYRAZOLES AS HERBICIDES” (E I DU PONT DE NEMOURS AND COMPANY, priority 2013, published 2015).

Tests used:
[1] = test system: lambsquarters; assay: Test D postemergence; format: in vivo, Chenopodium album; settings: scale 0 to 100
Procedure, shortened: (§1)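 Pre: sown in silt loam, sprayed at once. Post: grown in peat-moss/vermiculite mix, sprayed at 1–4 leaves (2–18 cm). Formulation: non-phytotoxic solvent + surfactant. Read-out: visual 0–100 vs controls, 14–21 d.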

[2] = test system: foxtail, green; assay: Test D preemergence; format: in vivo, Setaria viridis; settings: scale 0 to 100
Procedure, shortened: as §1

[3] = test system: Surinam grass; assay: Test F preemergence; format: in vivo, Brachiaria decumbens
Procedure, shortened: (§2)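 Plant response is scored by eye relative to controls on a 0 to 100 scale, where 100 means complete control. Preemergence applications were made to seeded silt loam; postemergence ones to seedlings 2 to 18 cm high. Greenhouse holding time was 14 to 21 days.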

[4] = test system: common ragweed; assay: Test F preemergence; format: in vivo, Ambrosia elation
Procedure, shortened: as §2

[5] = test system: canarygrass; assay: Test D preemergence; format: in vivo, Phalaris minor; settings: scale 0 to 100
Procedure, shortened: as §1

[6] = test system: speedwell; assay: Test D postemergence; format: in vivo, Veronica persica; settings: scale 0 to 100
Procedure, shortened: as §1

[7] = test system: kochia; assay: Test D postemergence; format: in vivo, Kochia scoparia; settings: scale 0 to 100
Procedure, shortened: as §1

[8] = test system: pigweed; assay: Test D preemergence; format: in vivo, Amaranthus retroflexus; settings: scale 0 to 100
Procedure, shortened: as §1

[9] = test system: foxtail, green; assay: Test D postemergence; format: in vivo, Setaria viridis; settings: scale 0 to 100
Procedure, shortened: as §1

[10] = test system: crabgrass, Brazil; assay: Test F preemergence; format: in vivo, Digitaria horizontalis
Procedure, shortened: as §2

[11] = test system: Italian ryegrass; assay: Test F preemergence; format: in vivo, Lolium multiflorum
Procedure, shortened: as §2

[12] = test system: bluegrass; assay: Test D preemergence; format: in vivo, Poa annua; settings: scale 0 to 100
Procedure, shortened: as §1

[13] = test system: pigweed; assay: Test D postemergence; format: in vivo, Amaranthus retroflexus; settings: scale 0 to 100
Procedure, shortened: as §1

[14] = test system: field violet; assay: Test D postemergence; format: in vivo, Viola arvensis; settings: scale 0 to 100
Procedure, shortened: as §1

[15] = Preemergence, 31 g ai/ha, scale 0 to 100
[16] = Preemergence, 62 g ai/ha, scale 0 to 100
[17] = Preemergence, 125 g ai/ha, scale 0 to 100
[18] = preemergence, 8 g ai/ha, scale 0 to 100, 100 is complete control
[19] = preemergence, 16 g ai/ha, scale 0 to 100, 100 is complete control
[20] = Preemergence, 16 g ai/ha, scale 0 to 100

CCCc1cc(C(=O)NCC(F)(F)F)nn1Cc1ccnc(C(F)(F)F)c1 [Compound 105]
Lambsquarters plant response rating ([1]; Postemergence, 31 g ai/ha): 40
Lambsquarters plant response rating ([1]; Postemergence, 125 g ai/ha): 70
Lambsquarters plant response rating ([1]; Postemergence, 250 g ai/ha): 80
Lambsquarters plant response rating ([1]; postemergence, 62 g ai/ha): 65
Plant response rating, Foxtail, Green ([2]; 31 g ai/ha): 45
Plant response rating, Foxtail, Green ([2]; 62 g ai/ha): 100
Plant response rating, Foxtail, Green ([2]; 125 g ai/ha): 100
Plant response rating, Foxtail, Green ([2]; 250 g ai/ha): 100
Plant response rating, Surinam Grass [3, 15]: 10
Plant response rating, Surinam Grass [3, 16]: 35
Plant response rating, Surinam Grass [3, 17]: 40
Plant response rating, Surinam Grass [3, 18]: 0
Plant response rating, Surinam Grass [3, 19]: 10
Plant response rating, Common Ragweed [4, 16]: 35
Plant response rating, Common Ragweed [4, 17]: 100
Plant response rating, Common Ragweed [4, 18]: 0
Plant response rating, Common Ragweed [4, 19]: 0
Plant response rating, Canarygrass ([5]; 31 g ai/ha): 15
Plant response rating, Canarygrass ([5]; 62 g ai/ha): 60
Plant response rating, Canarygrass ([5]; 125 g ai/ha): 100
Plant response rating, Canarygrass ([5]; 250 g ai/ha): 100
Speedwell plant response rating ([6]; Postemergence, 31 g ai/ha): 60
Speedwell plant response rating ([6]; Postemergence, 125 g ai/ha): 70
Speedwell plant response rating ([6]; Postemergence, 250 g ai/ha): 95
Speedwell plant response rating ([6]; postemergence, 62 g ai/ha): 80
Kochia plant response rating ([7]; Postemergence, 31 g ai/ha): 75
Kochia plant response rating ([7]; Postemergence, 125 g ai/ha): 80
Kochia plant response rating ([7]; Postemergence, 250 g ai/ha): 80
Kochia plant response rating ([7]; postemergence, 62 g ai/ha): 75
Plant response rating, Pigweed ([8]; 31 g ai/ha): 100
Plant response rating, Pigweed ([8]; 62 g ai/ha): 100
Plant response rating, Pigweed ([8]; 125 g ai/ha): 100
Plant response rating, Pigweed ([8]; 250 g ai/ha): 100
Foxtail, Green plant response rating ([9]; Postemergence, 31 g ai/ha): 10
Foxtail, Green plant response rating ([9]; Postemergence, 125 g ai/ha): 70
Foxtail, Green plant response rating ([9]; Postemergence, 250 g ai/ha): 80
Foxtail, Green plant response rating ([9]; postemergence, 62 g ai/ha): 65
Plant response rating, Crabgrass, Brazil [10, 15]: 98
Plant response rating, Crabgrass, Brazil [10, 16]: 100
Plant response rating, Crabgrass, Brazil [10, 17]: 100
Plant response rating, Crabgrass, Brazil [10, 18]: 5
Plant response rating, Crabgrass, Brazil [10, 19]: 40
Plant response rating, Italian Ryegrass [11, 15]: 50
Plant response rating, Italian Ryegrass [11, 16]: 60
Plant response rating, Italian Ryegrass [11, 17]: 80
Plant response rating, Italian Ryegrass [11, 18]: 0
Plant response rating, Italian Ryegrass [11, 19]: 0
Plant response rating, Bluegrass ([12]; 31 g ai/ha): 55
Plant response rating, Bluegrass ([12]; 62 g ai/ha): 80
Plant response rating, Bluegrass ([12]; 125 g ai/ha): 100
Plant response rating, Bluegrass ([12]; 250 g ai/ha): 100
Pigweed plant response rating ([13]; Postemergence, 31 g ai/ha): 85
Pigweed plant response rating ([13]; Postemergence, 125 g ai/ha): 80
Pigweed plant response rating ([13]; Postemergence, 250 g ai/ha): 85
Pigweed plant response rating ([13]; postemergence, 62 g ai/ha): 75
Field Violet plant response rating ([14]; Postemergence, 31 g ai/ha): 40
Field Violet plant response rating ([14]; Postemergence, 125 g ai/ha): 90
Field Violet plant response rating ([14]; Postemergence, 250 g ai/ha): 100
Field Violet plant response rating ([14]; postemergence, 62 g ai/ha): 75

CCOc1cc(C(=O)NC(C)C)nn1Cc1ccnc(C(F)(F)F)c1 [Compound 188]
Lambsquarters plant response rating ([1]; Postemergence, 31 g ai/ha): 70
Lambsquarters plant response rating ([1]; Postemergence, 125 g ai/ha): 80
Lambsquarters plant response rating ([1]; Postemergence, 250 g ai/ha): 90
Lambsquarters plant response rating ([1]; postemergence, 62 g ai/ha): 70
Plant response rating, Foxtail, Green ([2]; 62 g ai/ha): 100
Plant response rating, Foxtail, Green ([2]; 125 g ai/ha): 100
Plant response rating, Foxtail, Green ([2]; 250 g ai/ha): 100
Plant response rating, Surinam Grass [3, 16]: 100
Plant response rating, Surinam Grass [3, 17]: 100
Plant response rating, Surinam Grass [3, 18]: 20
Plant response rating, Common Ragweed [4, 20]: 30
Plant response rating, Common Ragweed [4, 16]: 90
Plant response rating, Common Ragweed [4, 17]: 90
Plant response rating, Common Ragweed [4, 18]: 0
Plant response rating, Canarygrass ([5]; 31 g ai/ha): 55
Plant response rating, Canarygrass ([5]; 62 g ai/ha): 95
Plant response rating, Canarygrass ([5]; 125 g ai/ha): 100
Plant response rating, Canarygrass ([5]; 250 g ai/ha): 100
Speedwell plant response rating ([6]; Postemergence, 31 g ai/ha): 75
Speedwell plant response rating ([6]; Postemergence, 125 g ai/ha): 80
Speedwell plant response rating ([6]; Postemergence, 250 g ai/ha): 90
Speedwell plant response rating ([6]; postemergence, 62 g ai/ha): 75
Kochia plant response rating ([7]; Postemergence, 31 g ai/ha): 75
Kochia plant response rating ([7]; Postemergence, 125 g ai/ha): 80
Kochia plant response rating ([7]; Postemergence, 250 g ai/ha): 85
Kochia plant response rating ([7]; postemergence, 62 g ai/ha): 75
Plant response rating, Pigweed ([8]; 62 g ai/ha): 100
Plant response rating, Pigweed ([8]; 125 g ai/ha): 100
Plant response rating, Pigweed ([8]; 250 g ai/ha): 100
Foxtail, Green plant response rating ([9]; Postemergence, 31 g ai/ha): 25
Foxtail, Green plant response rating ([9]; Postemergence, 125 g ai/ha): 25
Foxtail, Green plant response rating ([9]; Postemergence, 250 g ai/ha): 55
Foxtail, Green plant response rating ([9]; postemergence, 62 g ai/ha): 25
Plant response rating, Crabgrass, Brazil [10, 20]: 100
Plant response rating, Crabgrass, Brazil [10, 16]: 100
Plant response rating, Crabgrass, Brazil [10, 17]: 100
Plant response rating, Crabgrass, Brazil [10, 18]: 35
Plant response rating, Italian Ryegrass [11, 16]: 70
Plant response rating, Italian Ryegrass [11, 17]: 80
Plant response rating, Italian Ryegrass [11, 18]: 0
Plant response rating, Bluegrass ([12]; 31 g ai/ha): 55
Plant response rating, Bluegrass ([12]; 62 g ai/ha): 70
Plant response rating, Bluegrass ([12]; 125 g ai/ha): 100
Plant response rating, Bluegrass ([12]; 250 g ai/ha): 100
Pigweed plant response rating ([13]; Postemergence, 31 g ai/ha): 40
Pigweed plant response rating ([13]; Postemergence, 125 g ai/ha): 60
Pigweed plant response rating ([13]; Postemergence, 250 g ai/ha): 80
Pigweed plant response rating ([13]; postemergence, 62 g ai/ha): 40
Field Violet plant response rating ([14]; Postemergence, 31 g ai/ha): 85
Field Violet plant response rating ([14]; Postemergence, 125 g ai/ha): 100
Field Violet plant response rating ([14]; Postemergence, 250 g ai/ha): 100
Field Violet plant response rating ([14]; postemergence, 62 g ai/ha): 85
